Assay results from paper PMC12136031 (Science Advances, 2025).
Like-named read-outs stand apart in the source and are kept apart here.

Legend:
[1] = test system: TFEB ubiquitination; assay: TFEB cellular ubiquitination assay; format: cell-based, human; conditions: TFEB-EGFP immunoprecipitated
[2] = target: T1, NET (Homo sapiens, UniProt P23975); assay: Safety47 Transporter NET; format: cell-based; conditions: Blocker; for Emax: read-out: Max Response; for IC50: read-out: RC50 (IC50)
T1 construct: purchased Eurofins Panlab Safety47 Safety Scan

[3] = target: T2, CHRM1 (Homo sapiens, UniProt P11229); assay: Safety47 Calcium Flux CHRM1; format: cell-based; conditions: for Emax: read-out: Max Response; for EC50: read-out: RC50 (EC50); for IC50: read-out: RC50 (IC50)
T2 construct: purchased Eurofins Panlab Safety47 Safety Scan
T2 sequence (P11229 1-460): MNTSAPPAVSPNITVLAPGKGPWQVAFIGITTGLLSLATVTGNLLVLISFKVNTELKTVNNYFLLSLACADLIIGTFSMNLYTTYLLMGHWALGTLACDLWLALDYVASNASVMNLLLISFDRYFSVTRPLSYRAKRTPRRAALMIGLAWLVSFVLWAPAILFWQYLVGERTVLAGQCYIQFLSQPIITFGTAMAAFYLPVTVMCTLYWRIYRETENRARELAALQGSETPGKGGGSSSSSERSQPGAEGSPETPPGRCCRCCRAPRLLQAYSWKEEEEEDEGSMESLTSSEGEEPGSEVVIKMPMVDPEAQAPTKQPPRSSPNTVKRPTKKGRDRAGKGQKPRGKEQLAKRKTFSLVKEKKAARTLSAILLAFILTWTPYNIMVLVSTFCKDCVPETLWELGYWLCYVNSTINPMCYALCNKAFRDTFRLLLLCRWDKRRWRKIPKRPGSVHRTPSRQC

[4] = target: T3, PDE3A (Homo sapiens, UniProt Q14432); assay: Safety47 Enzymatic PDE3A; format: biochemical; conditions: Inhibitor; for Emax: read-out: Max Response; for IC50: read-out: RC50 (IC50)
T3 construct: purchased Eurofins Panlab (Safety47 Safety Scan, contract panel)

[5] = target: T4, KvLQT1/minK (Homo sapiens, UniProt P51787); assay: Safety47 Ion Channel KvLQT1/minK; format: cell-based; conditions: for Emax: read-out: Max Response; for IC50: read-out: RC50 (IC50); for EC50: read-out: RC50 (EC50)
T4 construct: purchased Eurofins Panlab (Safety47 Safety Scan, contract panel)

[6] = target: T5, HTR1B (Homo sapiens, UniProt P28222); assay: Safety47 cAMP HTR1B; format: cell-based; conditions: for Emax: read-out: Max Response; for EC50: read-out: RC50 (EC50); for IC50: read-out: RC50 (IC50)
T5 construct: purchased Eurofins Panlab (Safety47 Safety Scan, contract panel)

[7] = target: T6, ADRB1 (Homo sapiens, UniProt P08588); assay: Safety47 cAMP ADRB1; format: cell-based; conditions: for Emax: read-out: Max Response; for EC50: read-out: RC50 (EC50); for IC50: read-out: RC50 (IC50)
T6 construct: purchased Eurofins Panlab Safety47 Safety Scan

[8] = target: T7, OPRK1 (Homo sapiens, UniProt P41145); assay: Safety47 cAMP OPRK1; format: cell-based; conditions: for Emax: read-out: Max Response; for EC50: read-out: RC50 (EC50); for IC50: read-out: RC50 (IC50)
T7 construct: purchased Eurofins Panlab (Safety47 Safety Scan, contract panel)

[9] = target: T8, ADORA2A (Homo sapiens, UniProt P29274); assay: Safety47 Calcium Flux ADORA2A; format: cell-based; conditions: for Emax: read-out: Max Response; for EC50: read-out: RC50 (EC50); for IC50: read-out: RC50 (IC50)
T8 construct: purchased Eurofins Panlab Safety47 Safety Scan

[10] = target: DCAF7 / phosphorylated TFEB peptide (Ser138, Ser142) (Homo sapiens, UniProt P61962); assay: TFEB peptide binding assay with recombinant DCAF7; conditions: DCAF7 preincubated with compound
[11] = target: T9, CNR1 (Homo sapiens, UniProt P21554); assay: Safety47 cAMP CNR1; format: cell-based; conditions: for Emax: read-out: Max Response; for EC50: read-out: RC50 (EC50); for IC50: read-out: RC50 (IC50)
T9 construct: purchased Eurofins Panlab Safety47 Safety Scan

[12] = target: T10, PDE4D2 (Homo sapiens, UniProt Q08499); assay: Safety47 Enzymatic PDE4D2; format: biochemical; conditions: Inhibitor; for Emax: read-out: Max Response; for IC50: read-out: RC50 (IC50)
T10 construct: purchased Eurofins Panlab (Safety47 Safety Scan, contract panel)

[13] = target: T11, AChE (Homo sapiens, UniProt P22303); assay: Safety47 Enzymatic AChE; format: biochemical; conditions: Inhibitor; for Emax: read-out: Max Response; for IC50: read-out: RC50 (IC50)
T11 construct: purchased Eurofins Panlab (Safety47 Safety Scan, contract panel)

[14] = target: T12, ADRA1A (Homo sapiens, UniProt P35348); assay: Safety47 Calcium Flux ADRA1A; format: cell-based; conditions: for Emax: read-out: Max Response; for EC50: read-out: RC50 (EC50); for IC50: read-out: RC50 (IC50)
T12 construct: purchased Eurofins Panlab Safety47 Safety Scan
T12 sequence (P35348 1-466): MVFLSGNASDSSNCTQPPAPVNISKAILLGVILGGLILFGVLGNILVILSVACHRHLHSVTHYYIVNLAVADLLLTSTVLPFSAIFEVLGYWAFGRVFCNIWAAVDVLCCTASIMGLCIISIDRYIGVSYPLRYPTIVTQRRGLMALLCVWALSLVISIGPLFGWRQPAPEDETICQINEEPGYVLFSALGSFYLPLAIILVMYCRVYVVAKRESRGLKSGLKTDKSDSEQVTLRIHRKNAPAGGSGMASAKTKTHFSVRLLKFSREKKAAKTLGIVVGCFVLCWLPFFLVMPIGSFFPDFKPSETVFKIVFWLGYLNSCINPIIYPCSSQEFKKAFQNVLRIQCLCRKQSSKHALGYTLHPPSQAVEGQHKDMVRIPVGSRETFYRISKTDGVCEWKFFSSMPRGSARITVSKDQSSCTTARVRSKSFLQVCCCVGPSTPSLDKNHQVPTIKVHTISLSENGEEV

[15] = target: T13, CCKAR (Homo sapiens, UniProt P32238); assay: Safety47 Calcium Flux CCKAR; format: cell-based; conditions: for Emax: read-out: Max Response; for EC50: read-out: RC50 (EC50); for IC50: read-out: RC50 (IC50)
T13 construct: purchased Eurofins Panlab Safety47 Safety Scan
T13 sequence (P32238 1-428): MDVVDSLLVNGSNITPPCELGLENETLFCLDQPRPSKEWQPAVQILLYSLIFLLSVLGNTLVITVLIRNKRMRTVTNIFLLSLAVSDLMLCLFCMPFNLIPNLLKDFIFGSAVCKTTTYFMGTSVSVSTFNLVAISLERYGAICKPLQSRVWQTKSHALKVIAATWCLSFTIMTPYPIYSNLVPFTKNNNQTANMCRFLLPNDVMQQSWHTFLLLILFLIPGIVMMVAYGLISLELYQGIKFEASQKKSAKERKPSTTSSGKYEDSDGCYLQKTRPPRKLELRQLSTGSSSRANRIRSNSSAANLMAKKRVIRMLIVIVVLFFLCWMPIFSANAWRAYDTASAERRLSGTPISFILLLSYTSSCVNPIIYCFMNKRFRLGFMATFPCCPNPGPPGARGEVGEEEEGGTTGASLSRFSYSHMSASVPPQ

T10 sequence (Q08499 303-809 limits assumed): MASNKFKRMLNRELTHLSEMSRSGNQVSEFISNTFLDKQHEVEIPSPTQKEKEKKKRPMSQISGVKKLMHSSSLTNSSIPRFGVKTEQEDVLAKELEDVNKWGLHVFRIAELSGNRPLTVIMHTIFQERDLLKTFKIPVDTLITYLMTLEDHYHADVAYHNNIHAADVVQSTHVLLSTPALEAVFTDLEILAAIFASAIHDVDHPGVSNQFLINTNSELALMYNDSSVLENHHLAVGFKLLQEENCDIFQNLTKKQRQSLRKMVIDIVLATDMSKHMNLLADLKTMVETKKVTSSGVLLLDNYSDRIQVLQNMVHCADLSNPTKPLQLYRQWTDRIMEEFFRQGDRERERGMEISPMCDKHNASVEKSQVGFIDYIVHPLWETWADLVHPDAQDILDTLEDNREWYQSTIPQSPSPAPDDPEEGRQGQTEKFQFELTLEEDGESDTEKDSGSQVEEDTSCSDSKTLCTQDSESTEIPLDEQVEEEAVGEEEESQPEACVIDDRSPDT
T6 sequence (P08588 whole entry): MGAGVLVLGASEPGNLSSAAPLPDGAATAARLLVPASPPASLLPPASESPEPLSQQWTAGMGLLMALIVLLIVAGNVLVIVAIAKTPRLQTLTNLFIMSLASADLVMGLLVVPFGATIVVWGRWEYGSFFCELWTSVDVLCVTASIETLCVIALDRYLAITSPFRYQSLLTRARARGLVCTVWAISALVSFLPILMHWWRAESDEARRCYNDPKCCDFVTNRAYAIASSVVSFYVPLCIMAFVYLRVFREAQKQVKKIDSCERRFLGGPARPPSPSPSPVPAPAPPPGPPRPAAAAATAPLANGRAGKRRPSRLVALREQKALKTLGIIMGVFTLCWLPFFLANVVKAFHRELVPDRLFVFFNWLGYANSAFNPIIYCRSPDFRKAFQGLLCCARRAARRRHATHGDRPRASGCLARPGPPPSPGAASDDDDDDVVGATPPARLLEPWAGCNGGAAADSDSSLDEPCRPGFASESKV
T7 sequence (P41145 whole entry, species assumed): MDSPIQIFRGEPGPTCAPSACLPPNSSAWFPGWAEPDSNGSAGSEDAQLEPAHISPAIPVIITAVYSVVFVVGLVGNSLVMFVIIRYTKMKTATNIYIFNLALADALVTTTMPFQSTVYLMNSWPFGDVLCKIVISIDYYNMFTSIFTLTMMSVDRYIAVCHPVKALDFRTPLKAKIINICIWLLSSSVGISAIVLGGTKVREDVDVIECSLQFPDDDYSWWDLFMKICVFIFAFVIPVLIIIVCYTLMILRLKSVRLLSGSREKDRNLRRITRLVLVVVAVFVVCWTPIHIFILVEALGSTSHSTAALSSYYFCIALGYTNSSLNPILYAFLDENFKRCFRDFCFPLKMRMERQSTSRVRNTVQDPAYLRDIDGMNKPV
T5 sequence (P28222 whole entry, species assumed): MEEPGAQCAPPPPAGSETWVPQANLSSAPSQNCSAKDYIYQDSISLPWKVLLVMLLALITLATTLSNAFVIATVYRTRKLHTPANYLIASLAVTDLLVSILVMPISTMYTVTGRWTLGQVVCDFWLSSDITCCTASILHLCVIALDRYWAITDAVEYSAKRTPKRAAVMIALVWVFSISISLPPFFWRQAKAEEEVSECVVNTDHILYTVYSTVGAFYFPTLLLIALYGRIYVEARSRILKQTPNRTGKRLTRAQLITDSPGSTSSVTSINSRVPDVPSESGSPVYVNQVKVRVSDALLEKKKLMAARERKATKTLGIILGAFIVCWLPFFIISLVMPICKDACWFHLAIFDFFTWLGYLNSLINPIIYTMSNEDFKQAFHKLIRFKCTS
T9 sequence (P21554 whole entry): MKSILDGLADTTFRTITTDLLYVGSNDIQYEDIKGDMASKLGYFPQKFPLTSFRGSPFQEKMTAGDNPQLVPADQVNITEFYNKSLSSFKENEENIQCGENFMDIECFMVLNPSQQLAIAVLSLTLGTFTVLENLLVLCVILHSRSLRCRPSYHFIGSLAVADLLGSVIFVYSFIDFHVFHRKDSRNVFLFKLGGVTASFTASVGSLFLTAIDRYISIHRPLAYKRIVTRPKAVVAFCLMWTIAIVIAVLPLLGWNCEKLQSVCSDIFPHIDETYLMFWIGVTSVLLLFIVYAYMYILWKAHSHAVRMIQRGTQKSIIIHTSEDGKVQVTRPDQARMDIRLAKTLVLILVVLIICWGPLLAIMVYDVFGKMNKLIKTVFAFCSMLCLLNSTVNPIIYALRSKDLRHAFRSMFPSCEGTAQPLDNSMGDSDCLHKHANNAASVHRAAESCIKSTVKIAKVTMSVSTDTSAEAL
T11 sequence (P22303 32-614): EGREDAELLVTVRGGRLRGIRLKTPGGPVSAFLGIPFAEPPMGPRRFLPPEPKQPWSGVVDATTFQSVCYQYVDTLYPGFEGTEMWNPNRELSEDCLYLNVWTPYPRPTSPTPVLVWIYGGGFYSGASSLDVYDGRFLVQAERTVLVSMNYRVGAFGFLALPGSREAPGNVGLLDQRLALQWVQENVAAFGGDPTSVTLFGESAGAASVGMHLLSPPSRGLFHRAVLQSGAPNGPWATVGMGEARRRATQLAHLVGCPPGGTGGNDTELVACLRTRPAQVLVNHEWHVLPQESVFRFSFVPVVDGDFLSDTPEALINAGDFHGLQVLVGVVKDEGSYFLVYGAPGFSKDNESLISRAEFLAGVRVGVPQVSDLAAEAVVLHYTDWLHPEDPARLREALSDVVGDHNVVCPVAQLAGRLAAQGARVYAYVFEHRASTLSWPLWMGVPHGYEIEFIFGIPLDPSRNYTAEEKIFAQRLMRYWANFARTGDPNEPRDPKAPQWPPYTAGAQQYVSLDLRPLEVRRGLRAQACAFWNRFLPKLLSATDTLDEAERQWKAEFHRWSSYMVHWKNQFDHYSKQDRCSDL
T3 sequence (Q14432 whole entry, species assumed): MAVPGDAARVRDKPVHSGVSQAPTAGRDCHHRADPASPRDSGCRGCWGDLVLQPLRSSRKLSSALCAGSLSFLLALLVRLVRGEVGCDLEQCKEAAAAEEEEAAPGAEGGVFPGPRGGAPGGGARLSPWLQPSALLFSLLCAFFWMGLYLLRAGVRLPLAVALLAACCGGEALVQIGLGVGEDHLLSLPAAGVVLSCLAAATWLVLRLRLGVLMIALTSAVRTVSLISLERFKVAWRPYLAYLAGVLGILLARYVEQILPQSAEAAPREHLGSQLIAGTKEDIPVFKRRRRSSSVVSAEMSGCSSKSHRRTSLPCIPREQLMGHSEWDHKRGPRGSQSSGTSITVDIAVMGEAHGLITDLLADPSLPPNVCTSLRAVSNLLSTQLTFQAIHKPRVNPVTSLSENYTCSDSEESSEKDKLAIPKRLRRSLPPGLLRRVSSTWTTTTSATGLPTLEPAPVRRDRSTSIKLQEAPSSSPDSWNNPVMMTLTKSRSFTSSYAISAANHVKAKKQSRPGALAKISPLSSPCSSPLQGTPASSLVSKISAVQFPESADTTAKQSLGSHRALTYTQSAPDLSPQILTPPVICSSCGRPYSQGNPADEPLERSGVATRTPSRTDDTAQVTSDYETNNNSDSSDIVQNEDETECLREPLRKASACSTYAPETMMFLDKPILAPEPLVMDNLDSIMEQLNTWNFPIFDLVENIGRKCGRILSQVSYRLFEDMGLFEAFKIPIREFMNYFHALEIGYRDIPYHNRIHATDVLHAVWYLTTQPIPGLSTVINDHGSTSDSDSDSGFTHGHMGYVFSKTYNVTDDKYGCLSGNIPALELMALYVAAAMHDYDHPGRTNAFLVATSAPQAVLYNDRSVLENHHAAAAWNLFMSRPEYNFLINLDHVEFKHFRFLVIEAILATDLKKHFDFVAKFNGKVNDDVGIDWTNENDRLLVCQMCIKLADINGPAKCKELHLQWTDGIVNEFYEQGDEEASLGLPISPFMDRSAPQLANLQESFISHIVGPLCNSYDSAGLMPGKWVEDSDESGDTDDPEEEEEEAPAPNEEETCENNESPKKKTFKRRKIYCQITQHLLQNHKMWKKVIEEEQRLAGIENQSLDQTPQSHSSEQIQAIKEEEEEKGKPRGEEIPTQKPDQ
T8 sequence (P29274 whole entry): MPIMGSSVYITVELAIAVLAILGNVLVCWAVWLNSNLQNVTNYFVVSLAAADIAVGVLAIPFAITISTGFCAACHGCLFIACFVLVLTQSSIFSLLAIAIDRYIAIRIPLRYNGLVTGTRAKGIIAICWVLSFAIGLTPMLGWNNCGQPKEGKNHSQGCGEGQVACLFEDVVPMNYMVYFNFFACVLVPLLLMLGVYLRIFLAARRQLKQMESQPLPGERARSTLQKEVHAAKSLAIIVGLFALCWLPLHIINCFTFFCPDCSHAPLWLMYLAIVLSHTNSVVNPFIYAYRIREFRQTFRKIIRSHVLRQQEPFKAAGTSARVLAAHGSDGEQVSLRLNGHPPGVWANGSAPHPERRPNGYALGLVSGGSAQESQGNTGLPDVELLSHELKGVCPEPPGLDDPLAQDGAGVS
T1 sequence (P23975 whole entry): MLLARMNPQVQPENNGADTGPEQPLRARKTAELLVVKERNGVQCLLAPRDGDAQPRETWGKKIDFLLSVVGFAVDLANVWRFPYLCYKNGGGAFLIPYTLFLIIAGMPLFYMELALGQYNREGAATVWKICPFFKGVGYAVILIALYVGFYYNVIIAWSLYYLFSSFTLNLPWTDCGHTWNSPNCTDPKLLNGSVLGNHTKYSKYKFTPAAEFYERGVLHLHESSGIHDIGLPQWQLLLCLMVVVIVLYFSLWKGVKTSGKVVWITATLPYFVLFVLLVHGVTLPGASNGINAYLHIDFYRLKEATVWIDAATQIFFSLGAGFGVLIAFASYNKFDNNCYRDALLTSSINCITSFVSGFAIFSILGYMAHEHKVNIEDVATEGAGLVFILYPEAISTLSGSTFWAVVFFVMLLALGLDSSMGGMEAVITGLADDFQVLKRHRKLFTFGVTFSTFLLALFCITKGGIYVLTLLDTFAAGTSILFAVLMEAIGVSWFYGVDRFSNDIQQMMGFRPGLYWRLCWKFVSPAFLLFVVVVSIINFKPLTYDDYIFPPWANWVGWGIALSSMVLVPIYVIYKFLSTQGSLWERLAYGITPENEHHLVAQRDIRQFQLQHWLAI

Cl.c1ccc2c(Nc3ccc4[nH]ccc4c3)nc(-c3ccncc3)nc2c1 [BC18630, N-1H-indol-5-yl-2-pyridin-4-ylquinazolin-4-amine hydrochloride]
TFEB ubiquitination [1]: decreased | Emax [2]: 0% | IC50 [2]: > 10 µM | Emax ([3]; Agonist): 0% | EC50 ([3]; Agonist): > 10 µM | Emax ([3]; Antagonist): 7.76% | IC50 ([3]; Antagonist): > 10 µM | Emax [4]: 8.9% | IC50 [4]: > 10 µM | Emax ([5]; Blocker): 21.4% | IC50 ([5]; Blocker): > 10 µM | Emax ([5]; Opener): 6.18% | EC50 ([5]; Opener): > 10 µM | Emax ([6]; Agonist): 12.5% | EC50 ([6]; Agonist): > 10 µM | Emax ([6]; Antagonist): 5.74% | IC50 ([6]; Antagonist): > 10 µM | Emax ([7]; Agonist): 0.54% | EC50 ([7]; Agonist): > 10 µM | Emax ([7]; Antagonist): 44.8% | IC50 ([7]; Antagonist): > 10 µM | Emax ([8]; Agonist): 8.98% | EC50 ([8]; Agonist): > 10 µM | Emax ([8]; Antagonist): 1% | IC50 ([8]; Antagonist): > 10 µM | Emax ([9]; Agonist): 3.09% | EC50 ([9]; Agonist): > 10 µM | Emax ([9]; Antagonist): 29.8% | IC50 ([9]; Antagonist): > 10 µM | In vitro peptide binding [10]: reduced | Emax ([11]; Agonist): 0.8% | EC50 ([11]; Agonist): > 10 µM | Emax ([11]; Antagonist): 26.9% | IC50 ([11]; Antagonist): > 10 µM | Emax [12]: 52.3% | IC50 [12]: > 10 µM | Emax [13]: 21.2% | IC50 [13]: > 10 µM | Emax ([14]; Agonist): 0% | EC50 ([14]; Agonist): > 10 µM | Emax ([14]; Antagonist): 0% | IC50 ([14]; Antagonist): > 10 µM | Emax ([15]; Agonist): 1.69% | EC50 ([15]; Agonist): > 10 µM | Emax ([15]; Antagonist): 0% | IC50 ([15]; Antagonist): > 10 µM

Cl.Fc1cc(Nc2nc(-c3ccncc3)nc3ncccc23)cc2cc[nH]c12 [BC18813, N-(7-fluoro-1H-indol-5-yl)-2-pyridin-4-ylpyrido[2,3-d]pyrimidin-4-amine hydrochloride]
TFEB ubiquitination [1]: decreased | Emax [2]: 9.94% | IC50 [2]: > 10 µM | Emax ([3]; Agonist): 0% | EC50 ([3]; Agonist): > 10 µM | Emax ([3]; Antagonist): 15.3% | IC50 ([3]; Antagonist): > 10 µM | Emax [4]: 28.2% | IC50 [4]: > 10 µM | Emax ([5]; Blocker): 12.9% | IC50 ([5]; Blocker): > 10 µM | Emax ([5]; Opener): 3.89% | EC50 ([5]; Opener): > 10 µM | Emax ([6]; Agonist): 27.4% | EC50 ([6]; Agonist): > 10 µM | Emax ([6]; Antagonist): 0.13% | IC50 ([6]; Antagonist): > 10 µM | Emax ([7]; Agonist): 2.22% | EC50 ([7]; Agonist): > 10 µM | Emax ([7]; Antagonist): 42.9% | IC50 ([7]; Antagonist): > 10 µM | Emax ([8]; Agonist): 24.3% | EC50 ([8]; Agonist): > 10 µM | Emax ([8]; Antagonist): 0% | IC50 ([8]; Antagonist): > 10 µM | Emax ([9]; Agonist): 1.05% | EC50 ([9]; Agonist): > 10 µM | Emax ([9]; Antagonist): 37.7% | IC50 ([9]; Antagonist): > 10 µM | In vitro peptide binding [10]: reduced | Curve Bottom ([11]; Agonist): 0 | Curve Top ([11]; Agonist): 100 | Hill ([11]; Agonist): 1.07 | Emax ([11]; Agonist): 61% | EC50 ([11]; Agonist): 6.11 µM | Emax ([11]; Antagonist): 0% | IC50 ([11]; Antagonist): > 10 µM | Emax [12]: 44.4% | IC50 [12]: > 10 µM | Emax [13]: 6.26% | IC50 [13]: > 10 µM | Emax ([14]; Agonist): 5.5% | EC50 ([14]; Agonist): > 10 µM | Emax ([14]; Antagonist): 1.12% | IC50 ([14]; Antagonist): > 10 µM | Emax ([15]; Agonist): 2.97% | EC50 ([15]; Agonist): > 10 µM | Emax ([15]; Antagonist): 0% | IC50 ([15]; Antagonist): > 10 µM
